Paper PMC10746543, “Design principles for cyclin K molecular glue degraders” (Nature Chemical Biology, 2023)
Values joined by “and” are separate entries in the source; they are usually repeats but may differ in a detail not shown here. Identical values can stand only once. Like-named read-outs stand apart in the source and are kept apart here.

Columns and labels:
[1] = test system: cyclin K–eGFP degradation reporter; assay: Cyclin K reporter stability analysis (dual-color cyclin K–eGFP reporter); assay type: cell-based, human
Procedure, shortened: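 Readout was the eGFP-to-mCherry geometric-mean ratio by flow cytometry, normalized to three DMSO controls, after 5 h drug exposure. Cells used were HEK293T–Cas9 expressing the dual-colour cyclin K–eGFP degradation reporter.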

[2] = biological target: T1, CDK12–cyclin K and DDB1 (Homo sapiens, UniProt Q16531+Q9NYV4, K965R); assay: TR-FRET ternary complex formation assay (compound titration); assay type: binding; settings: for TR-FRET signal at compound concentration: replicate titrations; for fold lower affinity than DS11: TR-FRET complex formation
T1 construct: His6–CDK12 (a.a. 713–1,052); full-length or beta-propeller B domain deletion (ΔBPB: a.a. 396–705 deleted) constructs of His6–DDB1ΔBPB, StrepII–Avi–DDB1, or His6–Spy–DDB1; made in house; host or cells: Trichoplusia ni High Five insect cells (baculovirus)
T1 sequence (Q9NYV4 713-1052 K965R): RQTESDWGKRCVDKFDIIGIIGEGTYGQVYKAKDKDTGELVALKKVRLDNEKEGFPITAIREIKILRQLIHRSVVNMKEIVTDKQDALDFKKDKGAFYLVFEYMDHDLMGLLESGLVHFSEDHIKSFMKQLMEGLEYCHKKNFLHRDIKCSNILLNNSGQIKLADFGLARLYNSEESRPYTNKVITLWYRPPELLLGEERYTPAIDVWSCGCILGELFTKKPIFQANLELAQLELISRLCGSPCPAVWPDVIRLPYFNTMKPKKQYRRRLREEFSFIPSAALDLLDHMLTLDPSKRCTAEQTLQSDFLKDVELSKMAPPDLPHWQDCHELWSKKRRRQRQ
T1 sequence (O75909 1-267 partner): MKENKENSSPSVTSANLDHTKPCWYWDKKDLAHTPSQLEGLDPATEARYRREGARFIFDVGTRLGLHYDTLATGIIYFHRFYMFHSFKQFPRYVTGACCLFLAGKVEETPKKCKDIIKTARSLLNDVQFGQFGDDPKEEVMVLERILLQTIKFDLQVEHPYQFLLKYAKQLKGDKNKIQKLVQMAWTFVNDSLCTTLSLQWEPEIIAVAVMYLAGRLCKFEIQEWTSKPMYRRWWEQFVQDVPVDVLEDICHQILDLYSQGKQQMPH
T1 sequence (Q16531 whole entry): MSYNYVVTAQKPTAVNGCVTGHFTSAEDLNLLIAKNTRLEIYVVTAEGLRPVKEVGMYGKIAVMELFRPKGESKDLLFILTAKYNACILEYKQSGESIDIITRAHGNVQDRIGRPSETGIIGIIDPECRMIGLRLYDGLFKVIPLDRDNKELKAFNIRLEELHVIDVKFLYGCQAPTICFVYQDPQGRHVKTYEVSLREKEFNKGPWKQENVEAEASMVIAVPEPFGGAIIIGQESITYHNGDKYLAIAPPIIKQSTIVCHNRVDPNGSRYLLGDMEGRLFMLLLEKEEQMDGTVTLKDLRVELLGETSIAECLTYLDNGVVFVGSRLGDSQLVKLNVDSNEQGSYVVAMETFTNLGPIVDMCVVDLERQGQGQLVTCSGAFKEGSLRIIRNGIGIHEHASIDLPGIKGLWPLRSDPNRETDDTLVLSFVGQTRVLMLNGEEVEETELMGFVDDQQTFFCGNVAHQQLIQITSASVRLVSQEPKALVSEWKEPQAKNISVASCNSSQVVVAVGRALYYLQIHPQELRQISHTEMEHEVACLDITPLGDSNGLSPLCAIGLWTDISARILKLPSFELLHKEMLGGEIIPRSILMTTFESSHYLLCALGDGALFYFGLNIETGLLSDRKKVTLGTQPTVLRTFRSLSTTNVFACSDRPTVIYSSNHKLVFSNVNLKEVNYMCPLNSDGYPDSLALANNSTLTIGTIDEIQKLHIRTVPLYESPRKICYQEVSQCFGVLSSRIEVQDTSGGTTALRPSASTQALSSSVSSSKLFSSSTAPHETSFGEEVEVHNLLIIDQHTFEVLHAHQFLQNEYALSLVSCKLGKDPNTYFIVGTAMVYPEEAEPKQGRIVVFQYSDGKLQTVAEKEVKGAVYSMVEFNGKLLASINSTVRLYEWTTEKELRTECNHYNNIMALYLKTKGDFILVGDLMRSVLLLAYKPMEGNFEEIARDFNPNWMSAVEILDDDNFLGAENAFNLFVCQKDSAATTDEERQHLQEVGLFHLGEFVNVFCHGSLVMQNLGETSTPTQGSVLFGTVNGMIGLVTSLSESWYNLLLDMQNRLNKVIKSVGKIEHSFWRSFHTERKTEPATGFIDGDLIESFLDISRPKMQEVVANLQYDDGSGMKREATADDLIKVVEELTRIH
Procedure, shortened: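 Delayed (70 μs) time-resolved read; FRET computed as 520 nm over 490 nm emission.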

[3] = test system: HEK293T cells; assay: Drug sensitivity assay (CellTiter-Glo viability) with or without MLN4924 pretreatment; assay type: cell-based, human; settings: for EC50: Homo sapiens, HEK-293T, HEK293T viability, 72 h, compound alone, read-out: Cellular assays EC50; for EC50 / Toxicity rescue: Supplementary Table 2; for Toxicity rescue: MLN4924-mediated cytotoxicity rescue, 10 µM used where n.d.
Procedure, shortened: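 Viability of HEK293T–Cas9 cells was compared after 3-day drug treatment with or without 100 nM MLN4924 pretreatment (2 h, versus DMSO). Values are CellTiter-Glo signals relative to DMSO controls.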

[4] = source data sheet correlations, read-out: DC50
[5] = in vitro complex formation, 50 nM CDK12–cyclin K, 100 nM DDB1, text and figures, read-out: TR-FRET EC50
[6] = sheet MOESM7, read-out: log TR-FRET EC50 (converted)
[7] = Supplementary Table 2, HEK293T cycK-eGFP reporter, 5 h, read-out: Cellular assays DC50
[8] = compound concentration 79.2001 nM
[9] = compound concentration 158.4 nM
[10] = compound concentration 309.6 nM
[11] = compound concentration 626.401 nM
[12] = compound concentration 1252.8 nM
[13] = compound concentration 9936.01 nM
[14] = compound concentration 20016 nM
[15] = Supplementary Table 2, read-out: TR-FRET EC50 TR-FRET

Row | Structure (SMILES) | EC50 [3] | Toxicity rescue [3] | EC50 [2, 5] | EC50 [2, 6] | DC50 [1, 7] | TR-FRET signal at compound concentration ([2]; compound concentration 4.68 nM) | TR-FRET signal at compound concentration ([2]; compound concentration 21.6 nM) | TR-FRET signal at compound concentration ([2]; compound concentration 36 nM) | EC50 [2, 15] | TR-FRET signal, individual replicate ([2]; compound concentration 4.68 nM) | TR-FRET signal, individual replicate ([2]; compound concentration 21.6 nM) | TR-FRET signal, individual replicate ([2]; compound concentration 36 nM) | TR-FRET signal, individual replicate [2, 8] | TR-FRET signal, individual replicate [2, 9] | TR-FRET signal, individual replicate [2, 10] | TR-FRET signal, individual replicate [2, 11] | TR-FRET signal, individual replicate [2, 12] | TR-FRET signal, individual replicate ([2]; compound concentration 2448 nM) | TR-FRET signal, individual replicate [2, 13] | TR-FRET signal, individual replicate [2, 14] | also measured
1 | CC[C@@H](CO)Nc1nc(NCc2ccc(-c3ccccn3)cc2)c2ncn(C(C)C)c2n1 [DS28, reference compound] | 0.221 µM | 610% | – | – | – | – | – | – | – | – | – | – | – | – | – | – | – | – | – | – | DC50 [1, 4]: 0.027 µM; TR-FRET signal at compound concentration 0.468 nM ([2]; compound concentration 0.468 nM, raw titration data): 0.2434 and 0.2416 and 0.2052; TR-FRET signal at compound concentration 2.16 nM ([2]; compound concentration 2.16 nM, raw titration data): 0.3117 and 0.3133 and 0.2621; TR-FRET signal at compound concentration 3.6 nM ([2]; compound concentration 3.6 nM, raw titration data): 0.4303 and 0.4364 and 0.3629; TR-FRET signal at compound concentration 7.92001 nM ([2]; compound concentration 7.92001 nM, raw titration data): 0.6777 and 0.6662 and 0.6266; TR-FRET signal at compound concentration 15.84 nM ([2]; compound concentration 15.84 nM, raw titration data): 1.124 and 1.123 and 1.094; TR-FRET signal at compound concentration 30.96 nM ([2]; compound concentration 30.96 nM, raw titration data): 2.005 and 1.92 and 1.844; TR-FRET signal at compound concentration 62.6401 nM ([2]; compound concentration 62.6401 nM, raw titration data): 3.017 and 2.942 and 2.921; TR-FRET signal at compound concentration 125.28 nM ([2]; compound concentration 125.28 nM, raw titration data): 3.528 and 3.596 and 3.608; TR-FRET signal at compound concentration 244.8 nM ([2]; compound concentration 244.8 nM, raw titration data): 3.609 and 3.755 and 3.8349; TR-FRET signal at compound concentration 993.601 nM ([2]; compound concentration 993.601 nM, raw titration data): 3.693 and 3.913 and 3.885; TR-FRET signal at compound concentration 2001.6 nM ([2]; compound concentration 2001.6 nM, raw titration data): 3.507 and 3.702 and 3.683
2 | CC[C@H](CO)Nc1nc(NCCCc2cccc(F)c2)c2ncn(C(C)C)c2n1 [DS29] | 0.452 µM | 713% | 0.046 ± 0.002 µM | 0.0457 µM | – | – | – | – | – | – | – | – | – | – | – | – | – | – | – | – | DC50 [1, 4]: 0.253 µM; TR-FRET signal at compound concentration ([2]; compound concentration 0.468 nM): 0.256 and 0.2516; TR-FRET signal at compound concentration ([2]; compound concentration 2.16 nM): 0.3133 and 0.3182; TR-FRET signal at compound concentration ([2]; compound concentration 3.6 nM): 0.4047 and 0.4311; TR-FRET signal at compound concentration ([2]; compound concentration 7.92001 nM): 0.6615 and 0.6381; TR-FRET signal at compound concentration ([2]; compound concentration 15.84 nM): 1.045 and 0.9914; TR-FRET signal at compound concentration ([2]; compound concentration 30.96 nM): 1.635 and 1.536; TR-FRET signal at compound concentration ([2]; compound concentration 62.6401 nM): 2.287 and 2.228; TR-FRET signal at compound concentration ([2]; compound concentration 125.28 nM): 2.838 and 2.826; TR-FRET signal at compound concentration ([2]; compound concentration 244.8 nM): 3.127 and 3.261; TR-FRET signal at compound concentration ([2]; compound concentration 993.601 nM): 3.39 and 3.672; TR-FRET signal at compound concentration ([2]; compound concentration 2001.6 nM): 3.566 and 3.699; EC50 ([2]; source data sheet correlations, read-out: TR-FRET EC50): 0.0457 µM; % MLN4924 rescue ([3]; PCA input): 669%
3 | CC[C@H](CO)Nc1nc(NCCc2ccccc2)c2ncn(C(C)C)c2n1 [DS31] | > 10 µM | 0% | 1.23 ± 0.134 µM | – | > 10 µM | 0.211 and 0.2282 | 0.2112 and 0.2225 | 0.2194 and 0.2418 | – | – | – | – | – | – | – | – | – | – | – | – | fold lower affinity than DS11 [2]: 12-22 fold; TR-FRET signal at compound concentration [2, 8]: 0.2283 and 0.2565; TR-FRET signal at compound concentration [2, 9]: 0.2533 and 0.2816; TR-FRET signal at compound concentration [2, 10]: 0.2963 and 0.3231; TR-FRET signal at compound concentration [2, 11]: 0.3477 and 0.3849; TR-FRET signal at compound concentration [2, 12]: 0.4331 and 0.4555; TR-FRET signal at compound concentration ([2]; compound concentration 2448 nM): 0.5457 and 0.5736; TR-FRET signal at compound concentration [2, 13]: 0.6887 and 0.7282; TR-FRET signal at compound concentration [2, 14]: 0.6557 and 0.645
4 | CC[C@H](CO)Nc1nc(NCCCC2CCCCC2)c2ncn(C(C)C)c2n1 [DS32] | > 10 µM | 0% | – | 0.676 µM | > 10 µM | – | – | – | 0.676 µM | 0.2147 and 0.2508 | 0.2391 and 0.2736 | 0.287 and 0.3299 | 0.3607 and 0.4271 | 0.4885 and 0.5801 | 0.7088 and 0.8235 | 1.016 and 1.206 | 1.37 and 1.584 | 1.698 and 1.9826 | 1.942 and 2.207 | 1.955 and 2.01 | fold lower affinity than DS11 [2]: ten-fold
5 | CC[C@H](CO)Nc1nc(NCCCC2CCCC2)c2ncn(C(C)C)c2n1 [DS33] | > 10 µM | 0% | – | 1.27 µM | > 10 µM | – | – | – | 1.27 µM | 0.2064 and 0.239 | 0.2251 and 0.2479 | 0.2332 and 0.272 | 0.2704 and 0.303 | 0.3276 and 0.3592 | 0.4277 and 0.464 | 0.5723 and 0.6562 | 0.7875 and 0.9047 | 1.007 and 1.15 | 1.305 and 1.477 | 1.367 and 1.47 | –
6 | CC[C@H](CO)Nc1nc(NCCCc2ccco2)c2ncn(C(C)C)c2n1 [DS34] | > 10 µM | 0% | 0.603 ± 0.062 µM | 0.603 µM | > 10 µM | 0.2091 and 0.2292 | 0.229 and 0.2555 | 0.2532 and 0.2765 | 0.603 µM | – | – | – | – | – | – | – | – | – | – | – | TR-FRET signal at compound concentration [2, 8]: 0.311 and 0.3352; TR-FRET signal at compound concentration [2, 9]: 0.3881 and 0.4084; TR-FRET signal at compound concentration [2, 10]: 0.5012 and 0.4942; TR-FRET signal at compound concentration [2, 11]: 0.6373 and 0.6895; TR-FRET signal at compound concentration [2, 12]: 0.7887 and 0.8649; TR-FRET signal at compound concentration ([2]; compound concentration 2448 nM): 0.8803 and 0.974; TR-FRET signal at compound concentration [2, 13]: 1.0289 and 1.143; TR-FRET signal at compound concentration [2, 14]: 1.011 and 1.0565
7 | CC[C@H](CO)Nc1nc(NCCCc2ccnn2C)c2ncn(C(C)C)c2n1 [DS35] | > 10 µM | 0% | 0.246 ± 0.01 µM | 0.246 µM | > 10 µM | 0.1529 and 0.1552 | 0.228 and 0.2468 | 0.3788 and 0.4108 | 0.246 µM | – | – | – | – | – | – | – | – | – | – | – | TR-FRET signal at compound concentration [2, 8]: 0.6173 and 0.6444; TR-FRET signal at compound concentration [2, 9]: 0.9157 and 0.9758; TR-FRET signal at compound concentration [2, 10]: 1.283 and 1.333; TR-FRET signal at compound concentration [2, 11]: 1.6242 and 1.675; TR-FRET signal at compound concentration [2, 12]: 1.8781 and 1.924; TR-FRET signal at compound concentration ([2]; compound concentration 2448 nM): 2.069 and 2.096; TR-FRET signal at compound concentration [2, 13]: 2.24 and 2.273; TR-FRET signal at compound concentration [2, 14]: 2.144 and 2.245
8 | CCCCN(CCCC)CCCNc1nc(N[C@H](CC)CO)nc2c1ncn2C(C)C [DS36] | > 10 µM | 0% | – | – | > 10 µM | – | – | – | – | 0.2097 and 0.2275 | 0.2087 and 0.2297 | 0.2089 and 0.2353 | 0.2163 and 0.2368 | 0.2165 and 0.2428 | 0.2214 and 0.244 | 0.2373 and 0.2728 | 0.2487 and 0.3013 | 0.2879 and 0.3168 | 0.3262 and 0.358 | 0.3249 and 0.3501 | –
9 | CC[C@H](CO)Nc1nc(NCCC2CC2)c2ncn(C(C)C)c2n1 [DS37] | > 10 µM | 0% | – | – | > 10 µM | – | – | – | – | 0.1908 and 0.2636 | 0.201 and 0.2304 | 0.2177 and 0.2395 | 0.2212 and 0.2472 | 0.2411 and 0.2679 | 0.2728 and 0.306 | 0.3075 and 0.349 | 0.3712 and 0.4097 | 0.4307 and 0.4643 | 0.5169 and 0.5543 | 0.5088 and 0.5368 | –
